Laboratory results reported in patent publication US7612084B2, “Amine derivatives for the treatment of asthma and COPD” (Pfizer Inc, priority 2006, dated 2009).

Experiments:
[1] = target: human muscarinic M3 receptor (Homo sapiens, UniProt P20309); assay: Whole cell β-lactamase reporter assay in CHO cells expressing the hM3 receptor (antagonist activity); format: cell-based; settings: 80 nM carbamyl choline, IC50 converted to Ki by Cheng-Prusoff
Protocol: Functional Assessment of Antagonist Activity Using a Whole Cell β-Lactamase Reporter Assay in CHO Cells Expressing the hM3 Receptor.
CHO (Chinese Hamster Ovary) cells recombinantly expressing the human muscarinic M3 receptor were transfected with the NFAT_β-Lac_Zeo plasmid. Cells were grown in DMEM with Glutamax-1, supplemented with 25 mM HEPES(Life Technologies 32430-027), containing 10% FCS (Foetal Calf Serum; Sigma F-7524), […] Sodium pyruvate (Sigma S-8636), NEAA (non-Essential Amino Acids; Invitrogen 11140-035) and […] Zeocin (Invitrogen R250-01).
Cells were harvested for assay when they reached 80-90% confluency using enzyme free cell Dissociation Solution (Life technologies 13151-014) incubated with the cells for 5 min at 37° C. in an atmosphere containing 5% CO2. Detached cells were collected in warmed growth media and centrifuged at 200 rpm for 10 min, washed in PBS (Phosphate Buffered Saline; Life Technologies 14190-094) and centrifuged again as just described. The cells were re-suspended at 2×10^5 cells/ml in growth medium (composition as described above). 20 μl of this cell suspension was added to each well of a 384 well black clear bottomed plate (Greiner Bio One 781091-PFI). The assay buffer used was PBS supplemented with 0.05% Pluronic F-127 (Sigma 9003-11-6) and 2.5% DMSO. Muscarinic M3 receptor signalling was stimulated using 80 nM carbamyl choline (Aldrich N240-9) incubated with the cells for 4 h at 37° C./5% CO2 and monitored at the end of the incubation period using a Tecan SpectraFluor+plate reader (λ−excitation 405 nm, emission 450 nm and 503 nm). Compounds under test were added to the assay at the beginning of the 4 h incubation period and compound activity measured as the concentration dependent inhibition of the carbamyl choline induced signal. Inhibition curves were plotted and IC50 values generated using a 4-parameter sigmoid fit and converted to Ki values using the Cheng-Prusoff correction and the KD value for carbamyl choline in the assay.

[2] = target: human adrenergic B2 receptor (Homo sapiens, UniProt P07550); assay: Whole cell luciferase reporter assay in CHO cells expressing the hB2 receptor (agonist potency); format: cell-based; settings: 4 h incubation, read-out: EC50 - beta2
Chain of human adrenergic B2 receptor (P07550 whole entry): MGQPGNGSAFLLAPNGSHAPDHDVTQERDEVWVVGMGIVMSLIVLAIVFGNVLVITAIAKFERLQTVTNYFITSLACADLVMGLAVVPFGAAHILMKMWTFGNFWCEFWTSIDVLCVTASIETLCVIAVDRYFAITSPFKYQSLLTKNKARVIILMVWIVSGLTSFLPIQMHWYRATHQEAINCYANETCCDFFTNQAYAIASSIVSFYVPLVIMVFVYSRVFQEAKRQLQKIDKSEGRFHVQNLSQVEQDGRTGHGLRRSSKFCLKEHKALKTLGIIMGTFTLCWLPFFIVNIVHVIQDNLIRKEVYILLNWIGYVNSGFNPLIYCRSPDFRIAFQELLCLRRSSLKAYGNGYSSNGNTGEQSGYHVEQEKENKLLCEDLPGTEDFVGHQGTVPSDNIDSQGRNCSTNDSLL
Protocol: Functional Assessment of Agonist Potency and Efficacy Using a Whole Cell Luciferase Reporter Assay in CHO Cells Expressing the hB2 Receptor.
CHO (Chinese Hamster Ovary) cells recombinantly expressing the human adrenergic B2 receptor and transfected with a luciferase enzyme reporter gene were maintained in growth media composed of F12:DMEM (Sigma D6421) containing 10% Foetal Bovine Serum (FBS: Sigma F03921) 10 μg/ml puromycin (Sigma N277698), 0.5 mg/ml Geneticin G418 (Sigma G7034) and 2 mM L-glutamine (Sigma G7513). The cells were kept in sterile conditions at 37° C., in an atmosphere containing 5% CO2.
hB2 Luciferase Assay Protocol
Cells were harvested for assay when they reached 80-90% confluency using enzyme free cell Dissociation Solution (Life technologies 13151-014) incubated with the cells for 5 min at 37° C. in an atmosphere containing 5% CO2. Detached cells were collected in warmed growth media (composition described above), and re-suspended in assay media (F12:DMEM (Sigma D6421) containing 1% Foetal Bovine Serum (FBS: Sigma F03921), 10 μg/ml puromycin (Sigma N277698), 0.5 mg/ml Geneticin G418 (Sigma G7034) and 2 mM L-glutamine (Sigma G7513))to give a viable cell concentration of 1×10^6 cells/ml. 10 ul of this suspension was added to each well of a tissue culture treated low volume 384 well plate (Greiner788073) and the plate incubated in an atmosphere containing 5% CO2 at 37° C. for 2 h. Concentration ranges of test compounds were prepared in phosphate Buffered Saline containing 0.05% pluronic-F127 (Sigma P2443) and 2.5% DMSO. 2 μl of each test concentration were added to the appropriate 384 plate well and returned to the incubator for a further 4 h. At the end of the incubation period 4 μl of Steady-Glo reagent (Steady-Glo Luciferase assay system (Promega E2520) was added to each well and the plate read immediately in a Leadseeker Plate reader (Amersham Bioscience) using a 660 nm filter. Concentration effect curves were plotted and EC50 values generated using a 4-parameter sigmoid fit using an in-house data analysis programme. Isoprenaline was run in every assay as a reference standard.

Chain of human muscarinic M3 receptor (P20309 whole entry): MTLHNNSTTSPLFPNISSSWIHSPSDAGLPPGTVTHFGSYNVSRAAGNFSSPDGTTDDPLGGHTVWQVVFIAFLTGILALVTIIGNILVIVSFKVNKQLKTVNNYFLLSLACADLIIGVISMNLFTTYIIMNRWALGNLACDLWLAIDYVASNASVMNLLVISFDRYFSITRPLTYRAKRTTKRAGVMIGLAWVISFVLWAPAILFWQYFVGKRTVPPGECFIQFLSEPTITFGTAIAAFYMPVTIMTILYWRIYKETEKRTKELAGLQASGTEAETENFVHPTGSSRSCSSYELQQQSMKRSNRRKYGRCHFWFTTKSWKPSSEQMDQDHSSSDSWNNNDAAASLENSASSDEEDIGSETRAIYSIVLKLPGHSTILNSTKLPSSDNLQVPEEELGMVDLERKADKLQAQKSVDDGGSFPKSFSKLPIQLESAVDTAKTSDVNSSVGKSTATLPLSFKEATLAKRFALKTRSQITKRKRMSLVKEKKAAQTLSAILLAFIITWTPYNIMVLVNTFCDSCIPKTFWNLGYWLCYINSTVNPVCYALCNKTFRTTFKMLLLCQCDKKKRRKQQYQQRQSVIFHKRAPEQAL

| Ki [1] [pM] | EC50 [2] [pM] | SMILES |
| --- | --- | --- |
| 390 | 28 | CC(C)N(CC[C@H](c1ccccc1)c1cc(CCOc2ccc(CC(C)(C)NC[C@H](O)c3ccc(O)c4[nH]c(=O)ccc34)cc2)ccc1O)C(C)C [Example 20, 5-[(1R)-2-({2-[4-(2-{3-[(1R)-3-(diisopropylamino)-1-phenylpropyl]-4-hydroxyphenyl}ethoxy)phenyl]-11-dimethylethyl}amino)-1-hydroxyethyl]-8-hydroxyquinolin-2(1H)-one] |
| 260 | 13800 | CC(C)N(CC[C@H](c1ccccc1)c1cc(CCOc2ccc(CCNC[C@H](O)c3cc(O)cc(O)c3)cc2)ccc1O)C(C)C [Example 12, 5-[(1R)-2-({2-[4-(2-{3-[(1R)-3-(diisopropylamino)-1-phenylpropyl]-4-hydroxyphenyl}ethoxy)phenyl]ethyl}amino)-1-hydroxyethyl]benzene-1,3-diol] |
